Legend:
Experiment in all cases: fluorescence polarization
[1] = system: DNA S19 (DNA, single strand) AAAAGAGGGAAGGTGCTC; conditions: 100 mM NaCl, 1 mM MgCl2; 20 mM HEPES, 25 °C; 0.5 μM SMN-C2
[2] = system: RNA Seq16 (RNA, single strand) UGAAGGAAAGU; conditions: 100 mM NaCl; 20 mM HEPES, 25 °C; 0.5 μM SMN-C2
[3] = system: S3 (DNA, single strand) AAAAGAAGGAAGGTGATA; conditions: 100 mM NaCl, 1 mM MgCl2; 20 mM HEPES, 25 °C, 0.5 μM compound
[4] = system: S24 (DNA, single strand) AAAAGAAGGAAAGTGCTC; conditions: 100 mM NaCl, 1 mM MgCl2; 20 mM HEPES, 25 °C, 0.5 μM compound
[5] = system: S21 (DNA, single strand) AAAAAAAGGAAGGTGCTC; conditions: 100 mM NaCl, 1 mM MgCl2; 20 mM HEPES, 25 °C, 0.5 μM compound
[6] = system: DNA Seq13 (DNA, single strand) TGAAGAAAGGT; conditions: 100 mM NaCl, 1 mM MgCl2; 20 mM HEPES, 25 °C; 0.5 μM SMN-C2
[7] = system: DNA Seq12 (DNA, single strand) TGAAAGAAGGT; conditions: 100 mM NaCl, 1 mM MgCl2; 20 mM HEPES, 25 °C; 0.5 μM SMN-C2
[8] = system: S14 (DNA, single strand) AAAAGAAGGATGGTGCTC; conditions: 100 mM NaCl, 1 mM MgCl2; 20 mM HEPES, 25 °C, 0.5 μM compound
[9] = system: RNA Seq21 (RNA, hairpin) GCGCCGACUGAAGGAAGGAGUCGGCGC; conditions: 100 mM NaCl; 20 mM HEPES, 25 °C, 0.5 μM compound
[10] = system: DNA Seq9 (DNA, single strand) TTAAGGAAGTT; conditions: 100 mM NaCl, 1 mM MgCl2; 20 mM HEPES, 25 °C; 0.5 μM SMN-C2
[11] = system: RNA Seq17 (RNA, single strand) UGAAGGAAGAU; conditions: 100 mM NaCl; 20 mM HEPES, 25 °C; 0.5 μM SMN-C2
[12] = system: S2 (DNA, single strand) AAAAGAAGGAAGGAGCAC; conditions: 100 mM NaCl, 1 mM MgCl2; 20 mM HEPES, 25 °C, 0.5 μM compound
[13] = system: RNA Seq7 (RNA, single strand) UUAAGGAAGGU; conditions: 100 mM NaCl; 20 mM HEPES, 25 °C; 0.5 μM SMN-C2
[14] = system: DNA S27 (DNA, single strand) AGAAGGAAGG; conditions: 100 mM NaCl, 1 mM MgCl2; 20 mM HEPES, 25 °C; 0.5 μM SMN-C2
[15] = system: DNA S26 (DNA, single strand) TGAAGGAAGG; conditions: 100 mM NaCl, 1 mM MgCl2; 20 mM HEPES, 25 °C; 0.5 μM SMN-C2
[16] = system: S17 (DNA, single strand) AAAGGAAGGAAGGTGCTC; conditions: 100 mM NaCl, 1 mM MgCl2; 20 mM HEPES, 25 °C, 0.5 μM compound
[17] = system: S5 (DNA, single strand) AAAAGAAUGAAGGTGCTC; conditions: 100 mM NaCl, 1 mM MgCl2; 20 mM HEPES, 25 °C, 0.5 μM compound
[18] = system: DNA Seq22 (DNA, other) GTGCCAGTTCGCTGGCACTGAAGGAAGGT; conditions: 100 mM NaCl, 1 mM MgCl2; 20 mM HEPES, 25 °C, 0.5 μM compound
[19] = system: DNA Seq21 (DNA, hairpin) GCGCCGACTGAAGGAAGGAGTCGGCGC; conditions: 100 mM NaCl, 1 mM MgCl2; 20 mM HEPES, 25 °C, 0.5 μM compound
[20] = system: S6 (DNA, single strand) AAAAGAAGGAGGGTGCTC; conditions: 100 mM NaCl, 1 mM MgCl2; 20 mM HEPES, 25 °C, 0.5 μM compound
[21] = system: DNA S8 (DNA, single strand) AAATGAAGGAAGGTGCTC; conditions: 100 mM NaCl, 1 mM MgCl2; 20 mM HEPES, 25 °C; 0.5 μM SMN-C2
[22] = system: DNA Seq6 (DNA, single strand) TGAAGGAAGGT; conditions: 100 mM NaCl, 1 mM MgCl2; 20 mM HEPES, 25 °C; 0.5 μM SMN-C2
[23] = system: S23 (DNA, single strand) AAAAGAAGAAAGGTGCTC; conditions: 100 mM NaCl, 1 mM MgCl2; 20 mM HEPES, 25 °C, 0.5 μM compound
[24] = system: RNA Seq22 (RNA, other) GUGCCAGUUCGCUGGCACUGAAGGAAGGU; conditions: 100 mM NaCl; 20 mM HEPES, 25 °C, 0.5 μM compound
[25] = system: DNA Seq23 (DNA, mismatch bulge abasic) GCCAGGCGCACTTTCGAGTGCGCGAAGGAAGGCTGGC; conditions: 100 mM NaCl, 1 mM MgCl2; 20 mM HEPES, 25 °C, 0.5 μM compound

Kd [1]: 21.0 ± 1.1 µM
Kd [2]: 77.0 ± 26.0 µM
Kd [3]: 21.7 ± 2.7 µM
Kd [4]: 36.8 ± 11.4 µM
Kd [5]: > > 50 µM
Kd [6]: > 100 µM
Kd [7]: 17.6 ± 3.4 µM
Kd [8]: 19.5 ± 2.3 µM
Kd [9]: 4.6 ± 0.6 µM
Kd [10]: > 100 µM
Kd [11]: 48.2 ± 9.0 µM
Kd [12]: 20.2 ± 1.7 µM
Kd [13]: 42.3 ± 13.3 µM
Kd [14]: 11.6 ± 1.7 µM
Kd [15]: 6.2 ± 1.0 µM
Kd [16]: 16.5 ± 1.1 µM
Kd [17]: 42.3 ± 4.2 µM
Kd [18]: 10.0 ± 0.5 µM
Kd [19]: 12.8 ± 4.7 µM
Kd [20]: 33.3 ± 2.3 µM
Kd [21]: 12.4 ± 0.4 µM
Kd [22]: 3.1 ± 0.7 µM
Kd [23]: > > 50 µM
Kd [24]: 11.0 ± 0.8 µM
Kd [25]: 1.1 ± 0.2 µM
SMILES: CCN1CCN(c2ccc3cc(-c4cn5cc(C)nc(C)c5n4)c(=O)oc3c2)C[C@@H]1C

Source: PMC8373063 (2021)
